The assay addresses hENO1 (Homo sapiens, UniProt P06733). Description: isothermal titration calorimetry. Format: binding. The conditions noted are these: stoichiometry 1.4-1.6 molecules of 1 per hENO1. In general terms: In ITC the heat of successive injections is recorded.

Sequence of hENO1 (P06733 2-434): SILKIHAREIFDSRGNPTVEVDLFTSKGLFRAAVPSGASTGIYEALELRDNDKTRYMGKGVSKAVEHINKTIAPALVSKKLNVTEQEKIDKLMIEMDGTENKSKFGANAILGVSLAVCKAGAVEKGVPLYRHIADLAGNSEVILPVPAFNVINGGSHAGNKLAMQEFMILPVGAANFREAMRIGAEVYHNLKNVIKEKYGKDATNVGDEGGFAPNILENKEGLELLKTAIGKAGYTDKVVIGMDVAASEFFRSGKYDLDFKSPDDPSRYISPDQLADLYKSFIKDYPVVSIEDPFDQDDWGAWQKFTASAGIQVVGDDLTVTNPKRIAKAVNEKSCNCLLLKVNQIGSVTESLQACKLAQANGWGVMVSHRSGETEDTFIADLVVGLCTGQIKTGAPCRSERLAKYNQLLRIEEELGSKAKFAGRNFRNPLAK

The term Kd denotes the free concentration of one partner at which half of the binding sites on the other are occupied at equilibrium, for simple one-to-one binding. Compound `O=C1c2c(cc(O)c([C@@H]3CCc4cc(Cl)c(Cl)n43)c2O)-c2cc(Cl)c(Cl)n21` [compound 1, (-)-chlorizidine A] returned a Kd of 1.9 ± 0.9 µM.

The record behind these values is publication PMC4835225 (Chembiochem : a European journal of chemical biology, 2015).
